According to patent US20260021078A1, “COMPOSITIONS AND METHODS FOR THE TREATMENT OR PREVENTION OF PULMONARY HYPERTENSION” (VIVUS LLC, priority 2015, published 2026):
Where two headings read alike, the source gives them in different places.

Assays:
[1] = tested on: SuHx rat model of pulmonary arterial hypertension; assay: Sugen 5416 plus chronic hypoxia (SuHx) rat model of PAH, Example 1; type: in vivo
From the text: The purpose of this study was to establish pulmonary arterial hypertension (PAH) in rats by induction with Sugen 5416, a vascular endothelial growth factor (VEGF) inhibitor, plus chronic hypoxia (SuHx) in order to evaluate and compare the efficacy of tacrolimus and ascomycin for the treatment of PAH in the SuHx rat model. The assay is designed to measure the pulmonary and systemic arterial blood pressures related to PAH in the anaesthetized SuHx rat induced with a single subcutaneous dose of Sugen 5416, combined with an induction period of chronic hypoxia.
Male Sprague Dawley rats (Charles River Laboratories) weighing between 200 and 250 g at the time of their enrollment in the study were the test subjects for this study. The animals were assigned to groups by the Study Director in order to evenly distribute the ranges of body weights throughout all treatment groups. Animals in the test groups (n=10 in each group) received one subcutaneous injection of 20 mg/kg of SU5416 on Day 0 and were returned to their respective cages. These rats were placed in cages in which the controlled airflow (ventilated cage system) was adjusted to deliver a FiO2 equivalent to 0.10 (10%) using a mixture of nitrogen and ambient air, for a period of 3 weeks. Animals in the control group (n=5) remained in cages exposed to ambient oxygen levels.
On day 21, animals in the test groups were implanted with osmotic pumps filled with the vehicle alone (negative control), or with the appropriate concentration of tacrolimus (FK506) or ascomycin (FK520) to deliver 0.05 mg/kg/day of tacrolimus, 0.05 mg/kg/day of ascomycin, or 0.15 mg/kg/day of ascomycin for a period of three weeks. At the end of the study, the rats were anaesthetized and hemodynamic data was obtained. […] Cardiac output was lower after administration of Sugen5416 and hyposia, and increased with ascomycin treatment.

rats = conditions: 14-day, cited from earlier work
[2] = tested on: popliteal lymph node hyperplasia; conditions: popliteal lymph node hyperplasia assay; lower potency than tacrolimus; cited from earlier work
[3] = assay/target not stated; cited from earlier work
[4] = tested on: SuHx rat model of pulmonary arterial hypertension; assay: SuHx rat model of PAH with 3 weeks normoxia before treatment, Example 2; type: in vivo
Procedure: A second study was conducted as described in Example 1, except the rats injected with Sugen 5416 and placed in hypoxia for 3 weeks were returned to normoxia for three weeks, and then treated for three weeks. The rats were then implanted with s.c. osmotic pumps delivering vehicle (negative control), 0.05 mg/kg/day tacrolimus (FK506), or 0.15 mg/kg/day, 1.0 mg/kg/day, 3.0 mg/kg/day ascomycin (FK520). Rats that were not treated with Sugen 5416 and remained under normoxia served as control. There were 5 rats in the control group, and 10 rats in each treated group. At the end of the study, the rats were anaesthetized and hemodynamic data was obtained. […] The left lobes of the lungs were harvested from every rat, fixed with 10% formalin, sliced at 5 μm thickness, mounted and stained with Movat staining. […] Of particular significance in SuHx model is the rare plexiform lesions (label 4 in FIG. 3A) that are neointimal hyperplasia blocking the small vessels resulting in increased pressure. With plexiform lesions and endothelial cells overgrowth, obliteration is formed.

[5] = tested on: BMP response element (BRE) from the Id1 promoter fused to luciferase (BRE-luc) in C2C12 mouse myoblastoma reporter cell line; assay: BRE-luc BMP signaling reporter assay in C2C12 cells; type: cell-based
Procedure: The activation of the BMP pathway was measured by luminescence. […] Thus, ascomycin activates BMPR2 signaling, and can be used for the prevention or treatment of diseases associated with decreased BMPR2 signaling, such as pulmonary arterial hypertension (PAH).

[6] = tested on: patients with pulmonary hypertension (WHO Group I PAH); assay: Clinical study in patients with pulmonary arterial hypertension, Example 3; type: in vivo, human
From the text: Patients are invited to participate in this study because they have pulmonary hypertension (PH) and are currently treated with one or multiple drugs for PH such as PDE-5 inhibitors (sildenafil, tadalafil), prostacyclins (Flolan, Remodulin, Iloprost) and/or the endothelin antagonist Ambrisentan. This study is open to male or female subjects, 18-70 years of age, with pulmonary hypertension. The Inclusion and Exclusion criteria used are below:
• 1. Age ≥18 and <70 years • 2. Diagnosis of WHO Group I Pulmonary Arterial Hypertension (PAH) (Idiopathic (I)PAH, Heritable PAH (including Hereditary Hemorrhagic Telangiectasia), Associated (A)PAH (including collagen vascular disorders, drugs+toxins exposure, congenital heart disease, and portopulmonary disease). • 3. Previous Right Heart Catheterization (RHC) that documented: • a. Mean PAP≥25 mmHg. • b. Pulmonary capillary wedge pressure<15 mmHg. • c. Pulmonary Vascular Resistance≥3.0 Wood units or 240 dynes/sec/cm5 • 5. All NYHA/WHO functional classes. • 6. Willingness of female subjects to use birth control, or be post-menopausal, or status post hysterectomy.
• 1. WHO Group II-V Pulmonary Hypertension. • 2. Current or prior experimental PAH treatments within the last 6 months (including but not limited to tyrosine kinase inhibitors, rho-kinase inhibitors, or cGMP modulators). • 3. […]

[7] = 0.15 mg/kg/day by osmotic pump for three weeks, vs vehicle-treated SuHx rats
[8] = all three doses (0.15 [0.3 in b20], 1.0, 3.0 mg/kg/day) s.c. osmotic pump, three weeks
[9] = 0.05 mg/kg/day s.c. osmotic pump, three weeks

Row | Structure (SMILES) | RVSP (FIG. 1B) [1, 7] | pulmonary arterial pressure (FIG. 1A) [1, 7] | Cardiac output ([1]; ascomycin treatment after Sugen5416 and hypoxia, dose not specified) | nephrotoxicity (rats; continuous i.p. infusion at 10 mg/kg/day, rats on a normal diet) | nephrotoxicity (rats; continuous i.v. infusion up to 6 mg/kg/day, rats on a low salt diet) | nephrotoxicity (rats; daily oral administration up to 50 mg/kg/day, rats on a normal diet) | immunosuppressive potency compared with tacrolimus (fold lower) [2] | IC50 [3] | lung histopathology (Movat staining micrographs, FIG. 3B) ([4]; 1 mg/kg/day, left lung lobes, negative control showed all four grades of disease progression) | right ventricular systolic pressure [4, 8] | systolic pulmonary arterial pressure [4, 8] | IDI activation (luminescence relative to the EC-20 dose of BMP4) ([5]; with exogenous BMP4) | IDI activation (luminescence relative to the EC-20 dose of BMP4) ([5]; without exogenous BMP4) | incidences of hypertension or cardiovascular events [6] | tolerability ([6]; all tested doses) | right ventricular hypertrophy [4, 9] | right ventricular systolic pressure [4, 9]
1 | CC[C@@H]1/C=C(\C)C[C@H](C)C[C@H](OC)[C@H]2O[C@@](O)(C(=O)C(=O)N3CCCC[C@H]3C(=O)O[C@H](/C(C)=C/[C@@H]3CC[C@@H](O)[C@H](OC)C3)[C@H](C)[C@@H](O)CC1=O)[C@H](C)C[C@@H]2OC [ascomycin, (3S,4R,5S,8R,9E,12S,14S,15R,16S,18R, 19R,26aS)-8-ethyl-5,19-dihydroxy-3-{(1E)-1-[(1R,3R,4R)-4-hydroxy-3-methoxycyclohexyl]prop-1-en-2-yl}-14,16-dimethoxy-4,10,12,18-tetramethyl-5.6,8,11,12,13,14,15,16,17,18,19,24,25,26,26a-hexadecahydro-3H-15.19-epoxypyrido[2,1-c][1,4]oxazacyclotricosine-1,7,20,21(4H,23H)-tetrone] | reversed the elevation | reversed the elevation | increased | not induced | not induced | not induced | 3 fold | 0.55 nM | mostly medial hypertrophy (label 1) and non-muscular vessels | decreases | decreases | 238% | 104% | no incidences | well tolerated |  | 
2 | C=CC[C@@H]1/C=C(\C)C[C@H](C)C[C@H](OC)[C@H]2O[C@@](O)(C(=O)C(=O)N3CCCC[C@H]3C(=O)O[C@H](/C(C)=C/[C@@H]3CC[C@@H](O)[C@H](OC)C3)[C@H](C)[C@@H](O)CC1=O)[C@H](C)C[C@@H]2OC [tacrolimus, reference compound] |  |  |  |  |  |  |  |  |  |  |  |  |  |  |  | reduces the elevation | reduces the elevation
